According to patent US20100029654A1, “CARDIOVASCULAR COMPOSITIONS AND USE OF THE SAME FOR THE TREATMENT OF ALZHEIMER'S DISEASE” (MOUNT SINAI SCHOOL OF MEDICINE, priority 2006, published 2010):
Counter-ions that a name gives are not always drawn. Like-named read-outs stand apart in the source and are kept apart here.

Key:
Aβ1-40 = Aβ1-40 content in conditioned medium of primary cortico-hippocampal neuron cultures from Tg2576 mice (ELISA; primary and secondary dose-response screening); format: cell-based, mouse; conditions: for activity at 100 µM: Mus musculus, Neuron, 24 h, read-out: Ab1-40 (% of ctl); for activity at 100 µM / Ab1-40 (% of ctl): drug 100 μM; for reduced Aβ1-40: <85% of ctl
In short: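 Primary cortico-hippocampal neurons from embryonic Tg2576 mice were plated at 1.0×10^5 cells per well on poly-D-lysine-coated 96-well plates in Neurobasal with 2% B27, 0.5 mM L-glutamine and 1% penicillin-streptomycin. Cultures received drug in 1% DMSO, and Aβ1-40 in the conditioned medium was measured by BioSource ELISA 24 hours after treatment, relative to vehicle controls.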

[1] = tested on: primary cortico-hippocampal neuron cultures; test: MTT in primary screening
Aβ1-42 = Aβ1-42 content in conditioned medium of primary cortico-hippocampal neuron cultures from Tg2576 mice (ELISA; primary and secondary dose-response screening); format: cell-based, mouse; conditions: for activity at 100 µM: Mus musculus, Neuron, 24 h, read-out: Ab1-42 (% of ctl); for activity at 100 µM / Ab1-42 (% of ctl): drug 100 μM; for reducing Aβ1-42: <85% of ctl
In short: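 Primary cortico-hippocampal neurons from embryonic Tg2576 mouse brain were seeded on poly-D-lysine-coated 96-well plates at 1.0×10^5 cells per well in serum-free Neurobasal medium with 2% B27, 0.5 mM L-glutamine and 1% penicillin-streptomycin. For primary screening, duplicate wells received 100 μM drug (1% DMSO final). Vehicle-treated cultures served as controls, and Aβ1-42 in conditioned medium was measured by commercial ELISA.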

[2] = tested on: primary cortico-hippocampal neuron cultures; test: lactate dehydrogenase (LDH) activity assay in parallel neuron cultures
[3] = Primary Screening, table sorted by Aβ1-40
[4] = primary screening, Tg2576 neuron cultures, table sorted by Aβ1-42
[5] = primary screening, table sorted by Aβ1-42

SMILES | activity at 100 µM (Aβ1-40; [3]) | activity at 100 µM (Aβ1-40; [4]) | MTT (% of ctl) [1, 3] | MTT (% of ctl) [1, 5] | activity at 100 µM (Aβ1-42; [3]) | activity at 100 µM (Aβ1-42; [4]) | LDH (% of ctl) [2, 3] | LDH (% of ctl) [2, 5] | reduced Aβ1-40 (Aβ1-40; primary screening) | reducing Aβ1-42 (Aβ1-42; primary screening) | Ab1-40 (% of ctl) (Aβ1-40; [3]) | Ab1-40 (% of ctl) (Aβ1-40; [4]) | Ab1-42 (% of ctl) (Aβ1-42; [3]) | Ab1-42 (% of ctl) (Aβ1-42; [4])
CCOC(=O)[C@H](CCc1ccccc1)N[C@@H](C)C(=O)N1Cc2ccccc2C[C@H]1C(=O)O [Quinapril Hydrochloride] | 119% | 119% | 102.4 % of ctl | 102.4 % of ctl | 118% | 118% | 101.8 % of ctl | 101.8 % of ctl |  |  |  |  |  | 
C=C[C@H]1C[N@@]2CC[C@H]1C[C@@H]2[C@@H](O)c1ccnc2ccc(OC)cc12 [Quinidine Gluconate] | 63.3% | 63.3% | 46.8 % of ctl | 46.8 % of ctl | 70% | 70% | 357.6 % of ctl | 357.6 % of ctl | reduced Aβ1-40 | useful in reducing Aβ1-42 |  |  |  | 
CCOC(=O)[C@H](CCc1ccccc1)N[C@@H](C)C(=O)N1[C@H](C(=O)O)C[C@@H]2CCC[C@@H]21 [Ramipril] | 107% | 107% | 102.9 % of ctl | 102.9 % of ctl | 105% | 105% | 96.4 % of ctl | 96.4 % of ctl |  |  |  |  |  | 
COC(=O)[C@H]1[C@H]2C[C@H]3c4[nH]c5ccccc5c4CCN3C[C@H]2CC[C@@H]1O [Rauwolscine Hydrochloride] | 103% | 103% | 98.0 % of ctl | 98.0 % of ctl | 74.3% | 74.3% | 109.4 % of ctl | 109.4 % of ctl |  | useful in reducing Aβ1-42 |  |  |  | 
CC(C)c1nc(N(C)S(C)(=O)=O)nc(-c2ccc(F)cc2)c1/C=C/[C@@H](O)C[C@@H](O)CC(=O)O [Rosuvastatin] | 83.6% | 83.6% | 103.8 % of ctl | 103.8 % of ctl | 65.6% | 65.6% | 298.7 % of ctl | 298.7 % of ctl | reduced Aβ1-40 | useful in reducing Aβ1-42 |  |  |  | 
COc1cc2ccc(=O)oc2cc1O [Scopoletin] | 71.9% | 71.9% | 99.7 % of ctl | 99.7 % of ctl | 109% | 109% | 106.2 % of ctl | 106.2 % of ctl | reduced Aβ1-40 |  |  |  |  | 
CCC(C)(C)C(=O)O[C@H]1C[C@@H](C)C=C2C=C[C@H](C)[C@H](CC[C@@H]3C[C@@H](O)CC(=O)O3)[C@H]21 [Simvastatin] | 28% | 28% | 93.4 % of ctl | 93.4 % of ctl | 122% | 122% | 129.9 % of ctl | 129.9 % of ctl |  |  |  |  |  | 
CC(=O)S[C@@H]1CC2=CC(=O)CC[C@]2(C)[C@H]2CC[C@@]3(C)[C@@H](CC[C@@]34CCC(=O)O4)[C@H]12 [Spironolactone] | 60.4% | 60.4% | 117.0 % of ctl | 117.0 % of ctl | 70.7% | 70.7% | 100.6 % of ctl | 100.6 % of ctl | reduced Aβ1-40 | useful in reducing Aβ1-42 |  |  |  | 
COc1cc([S+](C)[O-])ccc1-c1nc2ncccc2[nH]1 (stereo not shown) [Sulmazole] | 116% | 116% | 115.0 % of ctl | 115.0 % of ctl | 93.2% | 93.2% | 111.1 % of ctl | 111.1 % of ctl |  |  |  |  |  | 
CCOc1ccccc1OCCN[C@H](C)Cc1ccc(OC)c(S(N)(=O)=O)c1.Cl [Tamsulosin Hydrchloride] |  |  | 96.1 % of ctl | 96.1 % of ctl |  |  | 102.2 % of ctl | 102.2 % of ctl |  |  | 106.5 % of ctl | 106.5 % of ctl | 91.8 % of ctl | 91.8 % of ctl
CCCc1nc2c(C)cc(-c3nc4ccccc4n3C)cc2n1Cc1ccc(-c2ccccc2C(=O)O)cc1 [Telmisartan] | 91.1% | 91.1% | 109.4 % of ctl | 109.4 % of ctl | 112% | 112% | 111.3 % of ctl | 111.3 % of ctl |  |  |  |  |  | 
COc1ccc2cc1Oc1ccc(cc1)C[C@H]1c3cc(c(OC)cc3CCN1C)Oc1c(OC)c(OC)cc3c1[C@H](C2)N(C)CC3 [Tetrandrine] | 4.5% | 4.5% | 112.5 % of ctl | 112.5 % of ctl | 25.2% | 25.2% | 117.6 % of ctl | 117.6 % of ctl |  |  |  |  |  | 
Cn1cnc2c1c(=O)[nH]c(=O)n2C [Theobromine] | 101% | 101% | 97.2 % of ctl | 97.2 % of ctl | 117% | 117% | 118.3 % of ctl | 118.3 % of ctl |  |  |  |  |  | 
